Measured values from PubChem BioAssay (NCI).
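Where inhibition never reached the appropriate level, the endpoint shown equals the highest concentration tested. Otherwise, values were interpolated linearly from a five-concentration, 48-hour dose response in 96-well plates. GI50: concentration for 50% inhibition of growth. The concentration for full growth arrest is given as TGI.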

Legend:
Experiment in all cases: NCI-60 cell line screen, 48 h
[1] = test system: OVCAR-3 ovarian
[2] = test system: NCI-H23 lung
[3] = test system: IGROV1 ovarian
[4] = test system: HCT-116 colon
[5] = test system: 786-0 renal
[6] = test system: EKVX NSCLC
[7] = test system: ACHN renal
[8] = test system: HCC-2998 colon
[9] = test system: HCT-15 colon
[10] = test system: BT-549 breast
[11] = test system: LOX IMVI melanoma
[12] = test system: PC-3 prostate
[13] = test system: UACC-257 melanoma
[14] = test system: SF-539 CNS
[15] = test system: NCI/ADR-RES ovarian
[16] = test system: HOP-62 NSCLC
[17] = test system: MOLT-4 leukemia
[18] = test system: OVCAR-5 ovarian
[19] = test system: U251 CNS
[20] = test system: SK-OV-3 ovarian
[21] = test system: A498 renal
[22] = test system: MCF7 breast
[23] = test system: SK-MEL-2 melanoma
[24] = test system: OVCAR-8 ovarian
[25] = test system: M14 melanoma
[26] = test system: CCRF-CEM leukemia
[27] = test system: SN12C renal
[28] = test system: K-562 leukemia

COc1cccc(/C=C/[N+](=O)[O-])c1
GI50 [1]: 1.96 µM
TGI [1]: 4.08 µM
GI50 [2]: 3.21 µM
TGI [2]: 12.6 µM
GI50 [3]: 2.4 µM
TGI [3]: 6.51 µM
GI50 [4]: 1.49 µM
TGI [4]: 3.31 µM
GI50 [5]: 1.9 µM
TGI [5]: 4.06 µM
GI50 [6]: 19 µM
TGI [6]: 76.2 µM
GI50 [7]: 2.49 µM
TGI [7]: 6.06 µM
GI50 [8]: 1.93 µM
TGI [8]: 3.51 µM
GI50 [9]: 2.17 µM
TGI [9]: 6.18 µM
GI50 [10]: 1.86 µM
TGI [10]: 3.99 µM
GI50 [11]: 1.66 µM
TGI [11]: 3.12 µM
GI50 [12]: 4.58 µM
TGI [12]: 17 µM
GI50 [13]: 3.19 µM
TGI [13]: 11.6 µM
GI50 [14]: 2.64 µM
TGI [14]: 8.72 µM
GI50 [15]: 26.2 µM
TGI [15]: 97.8 µM
GI50 [16]: 12.8 µM
TGI [16]: 26.6 µM
GI50 [17]: 3.06 µM
TGI [17]: 11.9 µM
GI50 [18]: 12.3 µM
TGI [18]: 27.6 µM
GI50 [19]: 4.04 µM
TGI [19]: 14.8 µM
GI50 [20]: 11.5 µM
TGI [20]: 23.6 µM
GI50 [21]: 3.54 µM
TGI [21]: 16.5 µM
GI50 [22]: 1.2 µM
TGI [22]: 3.93 µM
GI50 [23]: 17.4 µM
TGI [23]: 35.9 µM
GI50 [24]: 10.7 µM
TGI [24]: 25.1 µM
GI50 [25]: 2.01 µM
TGI [25]: 4.63 µM
GI50 [26]: 2.8 µM
TGI [26]: 7.32 µM
GI50 [27]: 15.2 µM
TGI [27]: 37.2 µM
GI50 [28]: 2.92 µM
TGI [28]: 11.5 µM
